# Bridge positions count the residues as written; N and C are the ends. Peptide text beside a SMILES is read from it.
# Experiments:
# [1] = Enzymatic stability against trypsin; format: in vitro ADME; details: isolated enzyme trypsin; endopeptidase trypsin, up to 6 hr, 37 °C, 100 mM ammonium bicarbonate pH 7.8; 28 µg peptide; quenched with 1 M HCl; UPLC peak area with MALDI-TOF MS; read-out: peptide remaining after trypsin
# Procedure: The β-ginkgotide β-gB1 (28 µg) was added to 100 µL of 100 mM ammonium bicarbonate buffer (pH 7.8) and incubated in a water bath at 37 °C for 6 hr. At each time-point (0 and 6 hr), 20 µL of the treated sample was aliquoted and quenched by adding 5 µL of 1 M hydrochloric acid.
# The reaction mixture was analyzed by a Nexera UHPLC system (Shimadzu, Kyoto, Japan) equipped with an Aeris peptide XB-C18 column (Phenomenex, CA, USA; particle size 3.6 µm, 100 × 4.6 mm). The eluents were monitored with MALDI-TOF MS, and the area under the peak before and after the treatment was determined to evaluate stability.
# Figure S5. Stability assays of β-gB1. (A) Thermal stability of β-gB1 incubated at 100 °C for 120 minutes. (B) Acidic condition stability of […] incubated in 0.2 M HCl (pH 2.0) at 37 °C for 120 minutes. […] The molecular weight of the peak was determined by MALDI-TOF MS.
# [2] = Enzymatic stability against carboxypeptidase A; format: in vitro ADME; details: isolated enzyme carboxypeptidase; exopeptidase carboxypeptidase A (method prints 100 nM carboxypeptidase B), up to 6 hr, 37 °C, 50 mM Tris-HCl pH 7.5, 100 mM NaCl; 28 µg peptide; UPLC peak area with MALDI-TOF MS; read-out: peptide remaining after carboxypeptidase A
# [3] = system: erythrocytes obtained from human type O blood; test: Hemolytic effect on erythrocytes; format: cell-based; details: human type O erythrocytes in PBS; concentrations up to 100 µM; 4 hr, 37 °C; read at 415 nm
# Procedure: Erythrocytes were isolated from fresh blood type O+ by centrifugation for 15 min at 10000 rpm. The erythrocytes were diluted with phosphate-buffered saline, mixed with various concentrations of β-ginkgotide β-gB1 (1–100 µM) and incubated for 4 hr at 37 °C. The hemolytic effect was examined using a microplate reader set at 415 nm^3.
# [4] = system: Vero cell line; test: In vitro cytotoxicity (MTT), Vero cells; format: cell-based; details: concentrations up to 100 µM, 24 hr
# [5] = system: BHK cell line; test: In vitro cytotoxicity (MTT), BHK cells; format: cell-based; details: concentrations up to 100 µM, 24 hr
compound,measurement,setting,value
"CC[C@H](C)[C@@H]1NC(=O)[C@@H]2CSSC[C@H](NC(=O)CNC(=O)[C@@H](NC(=O)[C@H](CCC(=O)O)NC(=O)[C@@H](N)Cc3ccc(O)cc3)[C@@H](C)O)C(=O)N[C@@H](CCCCN)C(=O)N[C@@H](CCCNC(=N)N)C(=O)N[C@H]3CSSC[C@@H](C(=O)O)NC(=O)[C@H](CSSC[C@H](NC3=O)C(=O)N[C@@H](Cc3ccc(O)cc3)C(=O)N[C@@H](CC(C)C)C(=O)N[C@@H](CC(=O)O)C(=O)N[C@@H](CCC(=O)O)C(=O)N[C@@H](Cc3ccc(O)cc3)C(=O)NCC(=O)N2)NC(=O)[C@H](CCCNC(=N)N)NC1=O [β-gB1] (H-YETGCKRCCYLDEYGCIRCC-OH; disulfide 5-16, 8-20, 9-19)",remaining at 6 h,[1],> 90%
same,remaining at 6 h,[2],> 90%
same,hemolytic effect,[3],no hemolytic effect
same,"cytotoxic effect, Vero cells",[4],nontoxic
same,"cytotoxic effect, BHK cells",[5],nontoxic
